Where two headings read alike, the source gives them in different places. Values belong to the molecule of their own block, whether it stands above or below them.
Experiments:
[1] = tested on: human OATP8 and MRP2 (MDCK-MRP2/OATP8 cells); assay: Inhibition of transcellular [3H]BSP transport in MDCK-MRP2/OATP8 cells; type: cell-based; conditions: 1 μM [3H]BSP, 30 min, 37° C.
[2] = target: T1, human OATP8 (MDCK-OATP8 cells) (Homo sapiens, UniProt Q9NPD5); assay: Inhibition of [3H]BSP accumulation and transport in MDCK-OATP8 cells; conditions: pre-incubation 20 min at room temperature, up to a concentration of 50 μM
T1 sequence (Q9NPD5 1-702): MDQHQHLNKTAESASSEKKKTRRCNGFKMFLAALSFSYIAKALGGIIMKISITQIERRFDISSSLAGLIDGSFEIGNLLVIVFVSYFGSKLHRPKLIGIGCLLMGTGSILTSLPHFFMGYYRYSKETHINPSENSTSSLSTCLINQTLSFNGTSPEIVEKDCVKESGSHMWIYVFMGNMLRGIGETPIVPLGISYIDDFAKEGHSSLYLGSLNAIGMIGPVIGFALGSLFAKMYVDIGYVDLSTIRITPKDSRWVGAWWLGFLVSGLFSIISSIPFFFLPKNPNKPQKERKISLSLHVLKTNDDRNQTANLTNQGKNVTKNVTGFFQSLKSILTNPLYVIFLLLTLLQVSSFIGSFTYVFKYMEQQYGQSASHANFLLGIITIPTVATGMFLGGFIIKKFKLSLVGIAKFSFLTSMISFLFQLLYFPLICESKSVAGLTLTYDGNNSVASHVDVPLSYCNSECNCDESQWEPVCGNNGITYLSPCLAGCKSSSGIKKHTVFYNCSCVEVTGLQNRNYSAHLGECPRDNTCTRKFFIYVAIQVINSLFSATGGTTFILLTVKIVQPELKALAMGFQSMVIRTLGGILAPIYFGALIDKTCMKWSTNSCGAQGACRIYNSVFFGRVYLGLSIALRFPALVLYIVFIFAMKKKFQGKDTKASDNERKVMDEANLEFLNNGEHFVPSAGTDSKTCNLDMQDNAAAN

[3] = tested on: human OATP8 and MRP2 (MDCK-MRP2/OATP8 cells); assay: Transcellular transport of organic anions across MDCK-MRP2/OATP8 cells on Transwell membrane inserts; conditions: substrate in basolateral compartment, 37° C., apical compartment measured; MDCK-MRP2/OATP8 compared with MDCK-OATP8, MDCK-Co (and MDCK-MRP2) cells
[4] = tested on: human OATP8 and MRP2 (MDCK-MRP2/OATP8 cells)
human MRP2 = human MRP2 (Homo sapiens, UniProt Q92887); assay: Inhibition of [3H]LTC4 transport into HEK-MRP2 membrane vesicles; type: biochemical; conditions: inhibitor at 50 μM
Sequence of human MRP2 (Q92887 whole entry): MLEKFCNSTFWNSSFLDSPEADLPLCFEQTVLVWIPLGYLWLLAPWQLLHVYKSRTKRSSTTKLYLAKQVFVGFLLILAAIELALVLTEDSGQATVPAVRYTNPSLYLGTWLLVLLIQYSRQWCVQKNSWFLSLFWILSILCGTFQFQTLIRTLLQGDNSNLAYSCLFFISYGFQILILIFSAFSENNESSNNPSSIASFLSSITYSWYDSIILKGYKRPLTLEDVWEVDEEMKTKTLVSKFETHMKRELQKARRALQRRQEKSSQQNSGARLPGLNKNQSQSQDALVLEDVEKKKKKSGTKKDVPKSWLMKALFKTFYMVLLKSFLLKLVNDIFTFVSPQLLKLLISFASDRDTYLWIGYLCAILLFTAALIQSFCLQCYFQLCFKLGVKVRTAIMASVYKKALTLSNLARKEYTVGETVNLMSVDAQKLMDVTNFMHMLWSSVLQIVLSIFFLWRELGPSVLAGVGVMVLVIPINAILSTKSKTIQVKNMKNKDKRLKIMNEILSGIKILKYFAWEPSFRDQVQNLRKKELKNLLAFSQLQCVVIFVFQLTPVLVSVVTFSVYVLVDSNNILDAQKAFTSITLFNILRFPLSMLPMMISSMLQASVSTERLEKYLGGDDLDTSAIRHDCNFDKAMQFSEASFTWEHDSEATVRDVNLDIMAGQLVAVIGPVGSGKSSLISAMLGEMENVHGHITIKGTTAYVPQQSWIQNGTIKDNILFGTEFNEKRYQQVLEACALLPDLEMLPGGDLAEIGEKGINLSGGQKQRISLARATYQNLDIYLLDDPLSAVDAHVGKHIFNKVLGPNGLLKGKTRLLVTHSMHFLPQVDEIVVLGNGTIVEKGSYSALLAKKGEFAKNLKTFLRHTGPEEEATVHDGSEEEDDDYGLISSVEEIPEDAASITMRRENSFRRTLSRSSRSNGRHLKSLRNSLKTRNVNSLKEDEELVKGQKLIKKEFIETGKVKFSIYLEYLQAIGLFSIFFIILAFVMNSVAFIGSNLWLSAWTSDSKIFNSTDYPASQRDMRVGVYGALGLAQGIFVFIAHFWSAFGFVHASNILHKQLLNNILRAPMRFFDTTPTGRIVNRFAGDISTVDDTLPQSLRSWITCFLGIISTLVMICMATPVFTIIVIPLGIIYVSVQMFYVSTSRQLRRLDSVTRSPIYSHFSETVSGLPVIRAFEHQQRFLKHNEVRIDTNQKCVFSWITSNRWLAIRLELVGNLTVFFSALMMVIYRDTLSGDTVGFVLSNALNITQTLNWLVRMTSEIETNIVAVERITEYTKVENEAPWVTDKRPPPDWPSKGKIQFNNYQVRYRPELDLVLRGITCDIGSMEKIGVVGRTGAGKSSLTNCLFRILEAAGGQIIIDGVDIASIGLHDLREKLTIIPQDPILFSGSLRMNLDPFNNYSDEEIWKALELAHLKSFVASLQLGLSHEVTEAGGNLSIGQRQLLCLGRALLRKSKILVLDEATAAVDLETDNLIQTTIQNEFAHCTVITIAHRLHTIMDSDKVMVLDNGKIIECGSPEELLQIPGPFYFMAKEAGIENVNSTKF

SMILES: O=[N+]([O-])c1ccc(Cl)c([N+](=O)[O-])c1 [CDNB, 1-chloro-2,4-dinitrobenzene]
effect on intracellular accumulation of [3H]BSP in MDCK-MRP2/OATP8 cells ([1]; different concentrations): enhanced | effect on transcellular transport of [3H]BSP in MDCK-MRP2/OATP8 cells ([1]; different concentrations): markedly inhibited | effect on intracellular accumulation of [3H]BSP in MDCK-OATP8 cells [2]: not inhibited | effect on transcellular transport of [3H]BSP in MDCK-OATP8 cells [2]: not inhibited

SMILES: Cc1ccc(N(CC(=O)O)CC(=O)O)c(OCCOc2cc(-c3c4cc(Cl)c(=O)cc-4oc4cc(O)c(Cl)cc34)ccc2N(CC(=O)O)CC(=O)O)c1.N.N.N.N.N [Fluo-3, 1-[2-amino-5-(2,7-dichloro-6-hydroxy-3-oxo-3H-xanthen-9-yl)]-2-(2′-amino-5′-methyl-phenoxyl)-ethane-N,N,N′,N′-tetraacetic acid penta-ammonium salt]
transcellular transport (basolateral to apical) [4]: higher transport rate

SMILES: CCCCC/C=C\C\C=C/C=C/C=C/[C@@H](SC[C@H](NC(=O)CC[C@H](N)C(=O)O)C(=O)NCC(=O)O)[C@@H](O)CCCC(=O)O [LTC4, leukotriene C4]
transcellular transport (basolateral to apical) [4]: much higher velocities

SMILES: C[C@H](CCC(=O)NCCS(=O)(=O)O)[C@H]1CC[C@H]2[C@@H]3[C@H](O)C[C@@H]4C[C@H](O)CC[C@]4(C)[C@H]3C[C@H](O)[C@]12C [[^3H]cholyl taurine, cholyl taurine]
transcellular transport (basolateral to apical) [3]: no difference in transport rates

Second part, led by results:

transcellular transport (basolateral to apical) [3]: much higher velocities
SMILES: C[C@]12CC[C@@H]3c4ccc(O)cc4CC[C@H]3[C@@H]1CC[C@@H]2O[C@@H]1O[C@H](C(=O)O)[C@@H](O)[C@H](O)[C@H]1O [E217bG, 17b-glucuronosyl estradiol]

[3H]LTC4 transport into HEK-MRP2 membrane vesicles (human MRP2): 50 % of control
SMILES: CO[C@H]1/C=C/O[C@@]2(C)Oc3c(C)c(O)c4c(O)c(c(/C=N/N5CCN(C)CC5)c(O)c4c3C2=O)NC(=O)/C(C)=C\C=C\[C@H](C)[C@H](O)[C@@H](C)[C@@H](O)[C@@H](C)[C@H](OC(C)=O)[C@@H]1C [rifampicin]
intracellular accumulation of [3H]BSP in MDCK-MRP2/OATP8 cells [1]: about 50 % of control | transcellular transport (basolateral to apical) [3]: significantly higher transcellular transport

[3H]LTC4 transport into HEK-MRP2 membrane vesicles (human MRP2): 38 % of control
SMILES: CO[C@H]1/C=C/O[C@@]2(C)Oc3c(C)c([O-])c4c(O)c(cc(O)c4c3C2=O)NC(=O)/C(C)=C\C=C\[C@H](C)[C@H](O)[C@@H](C)[C@@H](O)[C@@H](C)[C@H](OC(C)=O)[C@@H]1C.[Na+] [rifamycin SV]
intracellular accumulation of [3H]BSP in MDCK-MRP2/OATP8 cells [1]: about 50 % of control | effect on transcellular transport of [3H]BSP in MDCK-MRP2/OATP8 cells ([1]; different concentrations): inhibited more strongly

Reference: US7229825B2, “Double-transfected cell line useful for the identification of transport inhibitors” (Deutches Krebsforschungszentrum Stiftung des Offentlichen …, priority 2001, dated 2007)
